The record followed here is ChEMBL document CHEMBL1123961 (J Med Chem, 1988).

The target in assay [1] is Serotonin receptor 2a and 2c (5HT2A and 5HT2C) (Rattus norvegicus) (UniProt P08909+P14842).
Description: Hill coefficient of compound was determined
The target of assay [2] is T1, Serotonin receptor 2a and 2c (5HT2A and 5HT2C) (Rattus norvegicus, UniProt P08909+P14842). Description: Binding affinity at [3H]KET labeled sites of 5-hydroxytryptamine 2 receptor determined using [125I]- DOI as radioligand in rat frontal cortex. It counts as tissue-based.
The target of assay [3] is T1, Serotonin receptor 2a and 2c (5HT2A and 5HT2C). Description: Binding affinity at 5-hydroxytryptamine 2 receptor determined using [125I]- DOI as radioligand in rat frontal cortex. Format: tissue-based.
For assay [4] the target is unchanged. Nature of the assay: Binding affinity at [3H]DOB labeled sites of 5-hydroxytryptamine 2 receptor determined using [125I]- DOI as radioligand in rat frontal cortex. Format: tissue-based.
Assay [5] has the same target. Nature of the assay: Binding affinity at [3H]DOB labeled sites of 5-hydroxytryptamine 2 receptor was determined using [125I]- DOI as radioligand in rat frontal cortex. Format: tissue-based.
For assay [6] the target is unchanged. Description: Binding affinity at [3H]KET labeled sites of 5-hydroxytryptamine 2 receptor was determined using [125I]- DOI as radioligand in rat frontal cortex. Format: tissue-based.

Sequence of Serotonin receptor 2a and 2c (5HT2A and 5HT2C) (Rattus norvegicus) (P08909 whole entry, looked up): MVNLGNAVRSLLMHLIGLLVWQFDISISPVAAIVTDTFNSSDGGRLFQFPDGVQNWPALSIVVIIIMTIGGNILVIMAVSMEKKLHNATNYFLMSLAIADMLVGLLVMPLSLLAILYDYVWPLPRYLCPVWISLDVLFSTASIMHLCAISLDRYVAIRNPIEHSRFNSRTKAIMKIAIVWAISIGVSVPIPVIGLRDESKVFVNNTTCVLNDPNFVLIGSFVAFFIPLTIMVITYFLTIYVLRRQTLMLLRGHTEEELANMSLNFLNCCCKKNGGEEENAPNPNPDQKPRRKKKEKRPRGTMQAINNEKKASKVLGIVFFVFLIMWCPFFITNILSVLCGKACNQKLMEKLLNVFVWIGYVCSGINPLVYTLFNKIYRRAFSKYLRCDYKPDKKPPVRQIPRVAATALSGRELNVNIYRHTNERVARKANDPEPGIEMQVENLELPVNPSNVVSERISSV
Sequence of Serotonin receptor 2a and 2c (5HT2A and 5HT2C) (Rattus norvegicus) (P14842 whole entry, looked up): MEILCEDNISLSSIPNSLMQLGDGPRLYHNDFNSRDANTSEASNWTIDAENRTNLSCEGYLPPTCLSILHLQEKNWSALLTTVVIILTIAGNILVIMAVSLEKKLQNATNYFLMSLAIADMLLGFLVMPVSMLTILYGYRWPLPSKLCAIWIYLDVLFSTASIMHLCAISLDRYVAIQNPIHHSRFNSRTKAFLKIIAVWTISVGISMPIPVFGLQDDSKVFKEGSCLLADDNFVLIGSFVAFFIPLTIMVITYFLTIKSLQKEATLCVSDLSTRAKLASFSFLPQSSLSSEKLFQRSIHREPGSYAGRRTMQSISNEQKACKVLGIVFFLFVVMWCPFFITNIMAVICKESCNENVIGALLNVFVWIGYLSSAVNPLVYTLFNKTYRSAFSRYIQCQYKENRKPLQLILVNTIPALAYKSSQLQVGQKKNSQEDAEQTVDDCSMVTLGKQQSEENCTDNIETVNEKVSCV

As to `O=C(CCCN1CCC2(CC1)C(=O)NCN2c1ccccc1)c1ccc(F)cc1`, the nH in assay [1] was 0.75.

The Ki is the dissociation constant of the complex between target and ligand, obtained from inhibition or displacement. Low readings indicate a stronger hold on the target, high ones a looser hold on the target. With `COc1cc(CC(C)N)c(OC)cc1I` (racemic), the Ki is 20 nM in assay [2], 2.8 nM in assay [3] and 0.7 nM in assay [4]. Further, the nH in assay [1] was found to be 0.89.

In assay [1], `NCCc1c[nH]c2ccc(O)cc12` returned a nH of 0.9.

Take `CN(C)CCCSc1ccccc1NC(=O)/C=C/c1ccccc1` [CINANSERIN]: the Ki was found to be 5 nM in assay [3], 3.8 nM in assay [5] and 4.5 nM in assay [6]. Moreover, in assay [1], the nH was found to be 0.76.

As for `COc1cc(C[C@@H](C)N)c(OC)cc1Br`, the nH in assay [1] turned out to be 0.84.

As for `O=C(c1ccc(F)cc1)C1CCN(CCn2c(=O)[nH]c3ccccc3c2=O)CC1`, the nH in assay [1] came out at 0.87.
